As a reminder, the IC50 is the point on the concentration scale where inhibition reaches its midpoint.

Type in all cases: biochemical
The target of one assay is T1, KRAS G12V (Homo sapiens, UniProt P01116, G12V).
T1 construct: made in house; host or cells: E. coli, e.g. BL21 (DE3)
Put plainly: HTRF KRAS-SOS1 interaction assay, KRAS G12V. Conditions: binned ≤2 μM / >2 μM, read-out: Inhibition of KRAS G12V (IC50). The procedure, abridged: (§1)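 GST-tagged KRAS (WT or mutant) with anti-GST-Eu donor and His-hSOS1 with anti-6His-XL665 acceptor were combined in 5 mM HEPES pH 7.4, 150 mM NaCl, 1 mM DTT, 0.05% BSA, 0.0025% Igepal. After ~10 min, HTRF was read (ex 337, em 620/665 nm); IC50 from 665/620 ratio.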

The next assay has as its target T2, KRAS G12S (Homo sapiens, UniProt P01116, G12S).
T2 construct: made in house; host or cells: E. coli, e.g. BL21 (DE3)
Nature of the assay: HTRF KRAS-SOS1 interaction assay, KRAS G12S. Conditions: binned ≤2 μM / >2 μM, read-out: Inhibition of KRAS G12S (IC50). The procedure, abridged:
as §1
(In TR-FRET formats the signal depends on donor and acceptor labels being close together.)

The target of a further assay is T3, KRAS G12D (Homo sapiens, UniProt P01116, G12D).
T3 construct: made in house; host or cells: E. coli, e.g. BL21 (DE3)
Put plainly: HTRF KRAS-SOS1 interaction assay, KRAS G12D. The following applies: binned ≤2 μM / >2 μM, read-out: Inhibition of KRAS G12D (IC50). The procedure, abridged:
as §1

The next assay addresses T4, KRAS WT (Homo sapiens, UniProt P01116).
T4 construct: made in house; host or cells: E. coli, e.g. BL21 (DE3)
Put plainly: HTRF KRAS-SOS1 interaction assay, wildtype KRAS. The following applies: binned ≤2 μM / >2 μM, read-out: Inhibition of KRAS WT (IC50). The procedure, abridged: as §1

Molecules are shown by their SMILES.

T1 sequence (P01116 1-188 isoform P01116-2 G12V): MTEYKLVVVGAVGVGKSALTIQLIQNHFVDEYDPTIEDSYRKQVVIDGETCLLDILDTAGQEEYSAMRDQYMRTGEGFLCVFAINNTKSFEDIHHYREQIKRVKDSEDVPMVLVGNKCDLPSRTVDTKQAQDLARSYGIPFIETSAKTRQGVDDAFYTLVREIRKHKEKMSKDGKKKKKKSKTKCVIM
T4 sequence (P01116 1-188 isoform P01116-2): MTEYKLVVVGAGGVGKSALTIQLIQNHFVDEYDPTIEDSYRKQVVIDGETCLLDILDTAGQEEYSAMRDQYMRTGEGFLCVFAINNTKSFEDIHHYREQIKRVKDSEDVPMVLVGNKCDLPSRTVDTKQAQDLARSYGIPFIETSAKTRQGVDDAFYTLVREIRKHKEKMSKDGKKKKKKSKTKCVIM
T3 sequence (P01116 1-188 isoform P01116-2 G12D): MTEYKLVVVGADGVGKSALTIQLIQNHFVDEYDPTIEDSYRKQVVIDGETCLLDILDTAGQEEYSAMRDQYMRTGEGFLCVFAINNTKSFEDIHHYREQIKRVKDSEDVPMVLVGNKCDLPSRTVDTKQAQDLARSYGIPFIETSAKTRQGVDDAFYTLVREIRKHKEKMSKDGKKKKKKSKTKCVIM
T2 sequence (P01116 1-188 isoform P01116-2 G12S): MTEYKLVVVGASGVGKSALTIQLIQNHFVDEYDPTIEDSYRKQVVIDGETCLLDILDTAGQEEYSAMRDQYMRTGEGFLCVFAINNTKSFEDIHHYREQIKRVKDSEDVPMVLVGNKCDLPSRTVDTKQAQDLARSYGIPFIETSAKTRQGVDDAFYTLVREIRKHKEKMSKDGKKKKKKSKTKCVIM

Regarding `C[C@H](c1cc(Cl)cnc1N)N1CCOc2c(C(F)(F)F)c(-c3ccc(F)c4sc(N)c(C#N)c34)c(F)c3nc(OCC4(CN5CCC(=CF)CC5)CC4)nc1c23` [Compound 819, 2-amino-4-(4-((R)-1-(2-amino-5-chloropyridin-3-yl)ethyl)-10-fluoro-2-((1-((4-(fluoromethylene)piperidin-1-yl)methyl)cyclopropyl)methoxy)-8-(trifluoromethyl)-5,6-dihydro-4H-[1,4]oxazepino[5,6,7-de]quinazolin-9-yl)-7-fluorobenzo[b]thiophene-3-carbonitrile], the IC50 on KRAS G12V, on KRAS G12S, at KRAS G12D and at KRAS WT was ≤ 2000 nM throughout.
Take `CCO/N=C(\C)CCC[C@H](c1cccnc1N)N1CCOc2c(C(F)(F)F)c(-c3ccc(F)c4sc(N)c(C#N)c34)c(F)c3nc(OC[C@@]45CCCN4C[C@H](F)C5)nc1c23` [Compound 854, 2-amino-4-(4-((R,E)-1-(2-aminopyridin-3-yl)-5-(ethoxyimino)hexyl)-10-fluoro-2-(((2R,7aS)-2-fluorotetrahydro-1H-pyrrolizin-7a(5H)-yl)methoxy)-8-(trifluoromethyl)-5,6-dihydro-4H-[1,4]oxazepino[5,6,7-de]quinazolin-9-yl)-7-fluorobenzo[b]thiophene-3-carbonitrile]: the half-inhibitory concentration (IC50) at KRAS G12V, on KRAS G12S, on KRAS G12D and on KRAS WT was ≤ 2000 nM in each case.
Regarding `C[C@H](c1cccnc1N)N1CCOc2c(C(F)(F)F)c(-c3ccc(F)c4sc(N)c(C#N)c34)c(F)c3nc(OCC4(CN5[C@H](C)COC[C@@H]5C)CC4)nc1c23` (single isomer, unassigned) [Compound 719], the IC50 on KRAS G12V, at KRAS G12S, on KRAS G12D and at KRAS WT was > 2000 nM throughout.
Turning to `C[C@H](c1cccnc1N)N1CCOc2c(Cl)c(-c3cccc4sc(N)c(C#N)c34)c(F)c3nc(OC[C@@H]4CCCN4C)nc1c23` [Compound 612, 2-amino-4-(4-((R)-1-(2-aminopyridin-3-yl)ethyl)-8-chloro-10-fluoro-2-(((S)-1-methylpyrrolidin-2-yl)methoxy)-5,6-dihydro-4H-[1,4]oxazepino[5,6,7-de]quinazolin-9-yl)benzo[b]thiophene-3-carbonitrile], the IC50 at KRAS G12V, at KRAS G12S, on KRAS G12D and on KRAS WT was ≤ 2000 nM throughout.
`CO[C@H]1CCN(C)[C@@H]1COc1nc2c3c(c(C(F)(F)F)c(-c4ccc(F)c5sc(N)c(C#N)c45)c(F)c3n1)OCCN2[C@H](C)c1cccnc1N` [Compound 673, 2-amino-4-(4-((R)-1-(2-aminopyridin-3-yl)ethyl)-10-fluoro-2-(((2R,3S)-3-methoxy-1-methylpyrrolidin-2-yl)methoxy)-8-(trifluoromethyl)-5,6-dihydro-4H-[1,4]oxazepino[5,6,7-de]quinazolin-9-yl)-7-fluorobenzo[b]thiophene-3-carbonitrile]: the IC50 on KRAS G12V, at KRAS G12S, at KRAS G12D and at KRAS WT was ≤ 2000 nM in each case.
As for `C[C@H](c1nccnc1N)N1CCOc2c(C(F)(F)F)c(-c3ccc(F)c4sc(N)c(C#N)c34)c(F)c3nc(OC[C@@]45CCCN4C[C@H](F)C5)nc1c23` (single isomer, unassigned) [Compound 797], the IC50 on KRAS G12V, on KRAS G12S, at KRAS G12D and at KRAS WT was > 2000 nM in each case.
Consider `CO[C@H]1CCN(C)[C@@H]1COc1nc2c3c(c(C(F)(F)F)c(-c4ccc(F)c5sc(N)c(C#N)c45)c(F)c3n1)OCCN2[C@H](C)c1cc(F)cnc1N` (single isomer, unassigned) [Compound 774], for which the IC50 at KRAS G12V, at KRAS G12S, on KRAS G12D and at KRAS WT was ≤ 2000 nM throughout.
`C[C@H](c1cccnc1N)N1CCOc2c(C3CC3)c(-c3ccc(F)c4sc(N)c(C#N)c34)c(F)c3nc(OC[C@@]45CCCN4C[C@H](F)C5)nc1c23` (single isomer, unassigned) [Compound 727]: the IC50 on KRAS G12V, at KRAS G12S, at KRAS G12D and at KRAS WT was ≤ 2000 nM in each case.
`C[C@H](c1cccnc1N)N1CCOc2c(Cl)c(-c3ccc(F)c4sc(N)c(C#N)c34)c(F)c3nc(OC[C@@]45CCCN4C[C@]4(CC4(F)F)C5)nc1c23` [Compound 918, 2-amino-4-(4-((R)-1-(2-aminopyridin-3-yl)ethyl)-8-chloro-2-(((1R,7a′S)-2,2-difluorodihydro-1′H,3′H-spiro[cyclopropane-1,2′-pyrrolizin]-7a′(5′H)-yl)methoxy)-10-fluoro-5,6-dihydro-4H-[1,4]oxazepino[5,6,7-de]quinazolin-9-yl)-7-fluorobenzo[b]thiophene-3-carbonitrile]: the IC50 at KRAS G12V, at KRAS G12S, on KRAS G12D and at KRAS WT was ≤ 2000 nM each time.
As for `N#Cc1c(N)sc2c(F)ccc(-c3c(C(F)(F)F)c4c5c(nc(OCC6(CN7CCC8(CC7)CC8(F)F)CC6)nc5c3F)N([C@H](CCC3CCOCC3)c3cccnc3N)CCO4)c12` [Compound 907, 2-amino-4-(4-((R)-1-(2-aminopyridin-3-yl)-3-(tetrahydro-2H-pyran-4-yl)propyl)-2-((1-((1,1-difluoro-6-azaspiro[2.5]octan-6-yl)methyl)cyclopropyl)methoxy)-10-fluoro-8-(trifluoromethyl)-5,6-dihydro-4H-[1,4]oxazepino[5,6,7-de]quinazolin-9-yl)-7-fluorobenzo[b]thiophene-3-carbonitrile], the IC50 at KRAS G12V, on KRAS G12S, at KRAS G12D and at KRAS WT was ≤ 2000 nM each time.
With `Cc1c(F)c(N)cc(-c2nc3c4c(nc(O[C@@H](C)C5CCCN5C)nc4c2F)N([C@H](C)c2cccnc2N)CCO3)c1C(F)(F)F` (single isomer, unassigned) [Compound 748], the IC50 on KRAS G12V, at KRAS G12S, on KRAS G12D and at KRAS WT was ≤ 2000 nM throughout.
For the compound `N#Cc1c(N)sc2c(F)ccc(-c3c(C(F)(F)F)c4c5c(nc(OC[C@@]67CCCN6CC(=C(F)F)C7)nc5c3F)N([C@H](CCC3CCOCC3)c3cccnc3N)CCO4)c12` [Compound 808, 2-amino-4-(4-((R)-1-(2-aminopyridin-3-yl)-3-(tetrahydro-2H-pyran-4-yl)propyl)-2-(((S)-2-(difluoromethylene)tetrahydro-1H-pyrrolizin-7a(5H)-yl)methoxy)-10-fluoro-8-(trifluoromethyl)-5,6-dihydro-4H-[1,4]oxazepino[5,6,7-de]quinazolin-9-yl)-7-fluorobenzo[b]thiophene-3-carbonitrile], the IC50 on KRAS G12V, at KRAS G12S, at KRAS G12D and on KRAS WT was ≤ 2000 nM throughout.
Take `C=C(F)[C@H](c1cccnc1N)N1CCOc2c(Cl)c(-c3ccc(F)c4sc(N)c(C#N)c34)c(F)c3nc(OC[C@@]45CCCN4C[C@H](F)C5)nc1c23` [Compound 694, 2-amino-4-(4-((S)-1-(2-aminopyridin-3-yl)-2-fluoroallyl)-8-chloro-10-fluoro-2-(((2R,7aS)-2-fluorotetrahydro-1H-pyrrolizin-7a(5H)-yl)methoxy)-5,6-dihydro-4H-[1,4]oxazepino[5,6,7-de]quinazolin-9-yl)-7-fluorobenzo[b]thiophene-3-carbonitrile]: the IC50 at KRAS G12V, at KRAS G12S, at KRAS G12D and at KRAS WT was ≤ 2000 nM throughout.
`CCO/N=C/C1CN2CCC[C@@]2(COc2nc3c4c(c(Cl)c(-c5ccc(F)c6sc(N)c(C#N)c56)c(F)c4n2)OCCN3[C@H](C)c2cccnc2N)C1` (mixture of isomers) [Compound 711, 2-amino-4-(4-((R)-1-(2-aminopyridin-3-yl)ethyl)-8-chloro-2-(((7aS)-2-((E)-(ethoxyimino)methyl)tetrahydro-1H-pyrrolizin-7a(5H)-yl)methoxy)-10-fluoro-5,6-dihydro-4H-[1,4]oxazepino[5,6,7-de]quinazolin-9-yl)-7-fluorobenzo[b]thiophene-3-carbonitrile]: the IC50 at KRAS G12V, at KRAS G12S, at KRAS G12D and at KRAS WT was ≤ 2000 nM each time.
For `CC(Oc1nc2c3c(c(Cl)c(-c4ccc(F)c5sc(N)c(C#N)c45)c(F)c3n1)OCCN2[C@H](C)c1cccnc1N)[C@@H]1CC(F)(F)CN1C` (single isomer, unassigned) [Compound 919], the IC50 at KRAS G12V, at KRAS G12S, at KRAS G12D and on KRAS WT was ≤ 2000 nM each time.
In the case of `C[C@H](c1cc(F)cnc1N)N1CCOc2c(C(F)(F)F)c(-c3ccc(F)c4sc(N)c(C#N)c34)c(F)c3nc(OCC4(CN5CC[C@@H](F)C5)CC4)nc1c23` [Compound 644, 2-amino-4-(4-((R)-1-(2-amino-5-fluoropyridin-3-yl)ethyl)-10-fluoro-2-((1-(((R)-3-fluoropyrrolidin-1-yl)methyl)cyclopropyl)methoxy)-8-(trifluoromethyl)-5,6-dihydro-4H-[1,4]oxazepino[5,6,7-de]quinazolin-9-yl)-7-fluorobenzo[b]thiophene-3-carbonitrile], the IC50 at KRAS G12V, at KRAS G12S, at KRAS G12D and on KRAS WT was ≤ 2000 nM throughout.

(Values after patent publication US12668600B2 (Kumquat Biosciences Inc., priority 2023, dated 2026).)
